The source of these data is patent publication EP0589484A1, “1,2-Ethanediol derivative and salt thereof, process for producing the same, and cerebral function-improving agent comprising the same” (TOYAMA CHEMICAL CO., LTD., priority 1989, dated 1990).

Counter-ions that a name gives are not always drawn.

One assay deals with ddY female mouse. As to the kind of experiment: Effect of test compound on hypoxia (antihypoxic activity). The class given is in vivo. The note with it: po, 100 mg/kg orally, placed in chamber (4% oxygen, 96% nitrogen) after 1 hour from the administration, survival time relative to control, read-out: Antihypoxic activity (%). How it is done: A test compound dissolved in physiological saline (100 mg/kg) was orally administered to a ddY female mouse (5-6 weeks old, each group consisting of 10 mice). After 1 (or 30 minutes*) hour from the administration, each mouse was placed in a 300-ml glass chamber, and a gas mixture consisting of 4% of oxygen and 96% of nitrogen was passed through the chamber at a rate of 5 liters/min. A time from the start of gas passing to the death of each mouse was measured.
To a control mice group was orally administered only physiological saline.
The antihypoxic activity of the test compound was calculated from the following formula: [formula]
Consider `OC(COCCN1CCCCC1)c1cccc(Cl)c1` (centres unmarked) [compound 36], for which the response vs control in vivo at 100 mg/kg stood at 139%.

As to `CN(C)CCOCC(O)c1ccc(OCc2ccc(Cl)cc2)cc1` (centres unmarked) [compound 49], the response vs control in vivo at 100 mg/kg turned out to be 151%.

On to `CN(C)CCOCC(O)c1ccc(-c2ccccc2)cc1` (centres unmarked) [compound 56], for which the response vs control in vivo at 100 mg/kg turned out to be 182%.

For the compound `Cc1cccc(C(O)COCC2CNCCO2)c1` (centres unmarked) [compound 152], the response vs control in vivo at 100 mg/kg stood at 180%.

Take `OC(COCC1CNCCO1)c1cccc(Cl)c1` (centres unmarked) [compound 153]: the response vs control in vivo at 100 mg/kg was 185%.

`OC(COCCN1CCN(C(c2ccccc2)c2ccccc2)CC1)c1ccccc1` (centres unmarked) [compound 167]: the response vs control in vivo at 100 mg/kg is 165%.

Take `CC(=O)N(C)CCOCC(O)c1ccccc1` (centres unmarked) [compound 181]: the response vs control in vivo at 100 mg/kg came to 132%.

For `COC(COCCN(C)C)c1ccc(OCc2ccccc2)cc1` (centres unmarked) [compound 213], the response vs control in vivo at 100 mg/kg was 149%.

For `Cn1cncc1COCC(O)c1ccc(OCc2ccccc2)cc1` (centres unmarked) [compound 215, 1-(4-Benzyloxyphenyl)-2-[(1-methylimidazol-5-yl)-methoxy]ethanol], the response vs control in vivo at 100 mg/kg amounted to 197%.

For the compound `CN(C)CCOCC(O)c1ccc(F)c2ccccc12` (centres unmarked) [compound 231], the response vs control in vivo at 100 mg/kg was 246%.

Regarding `Cc1ccc(C(O)COCCN(C)C)c2ccccc12` (centres unmarked) [compound 232], the response vs control in vivo at 100 mg/kg was determined as 150%.

For `OC(COCCN1CCCCC1)c1ccc2ccccc2c1` (centres unmarked) [compound 238], the response vs control in vivo at 100 mg/kg amounted to 123%.

As to `CCN(CC)CCOCC(O)c1cccc2ccccc12` (centres unmarked) [compound 243], the response vs control in vivo at 100 mg/kg was 159%.

Staying with this assay, now noted: po, 0.5 h, 100 mg/kg orally, placed in chamber (4% oxygen, 96% nitrogen) after 30 minutes from the administration (values marked *), survival time relative to control, read-out: Antihypoxic activity (%).
On to `Cc1ccccc1C(O)COCCN(C)C` (centres unmarked) [compound 14], for which the response vs control in vivo at 100 mg/kg is 184%.

In the case of `CN(C)CCOCC(O)c1ccc(C(C)(C)C)cc1` (centres unmarked) [compound 19], the response vs control in vivo at 100 mg/kg worked out at 168%.

Regarding `Cc1cccc(C(O)COCCCCN(C)C)c1` (centres unmarked) [compound 23], the response vs control in vivo at 100 mg/kg worked out at 241%.

Regarding `Cc1cc(C)cc(C(O)COCCN(C)C)c1` (centres unmarked) [compound 27], the response vs control in vivo at 100 mg/kg turned out to be 201%.

Turning to `CN(C)CCOCC(O)c1ccc(OCc2ccccn2)cc1` (centres unmarked) [compound 84], the response vs control in vivo at 100 mg/kg was determined as 175%.

Turning to `CN(C)CCOCC(O)c1c(Cl)cccc1Cl` (centres unmarked) [compound 96], the response vs control in vivo at 100 mg/kg came to 176%.

As to `COc1cc(C(O)COCCN(C)C)ccc1OCc1ccccc1` (centres unmarked) [compound 98], the response vs control in vivo at 100 mg/kg is 164%.

Regarding `OC(COCCN1CCOCC1)c1ccc(OCc2ccccc2)cc1` (centres unmarked) [compound 100], the response vs control in vivo at 100 mg/kg worked out at 171%.

For `NCCOCC(O)c1ccccc1` (centres unmarked) [compound 102], the response vs control in vivo at 100 mg/kg is 140%.

In the case of `Cc1cccc([C@@H](O)COCCN(C)C)c1` [compound 104], the response vs control in vivo at 100 mg/kg is 160%.

Turning to `OC(COCc1cccnc1)c1ccc(OCc2ccccc2)cc1` (centres unmarked) [compound 121], the response vs control in vivo at 100 mg/kg amounted to 149%.

As to `OC(COCc1ccccn1)c1ccccc1` (centres unmarked) [compound 122], the response vs control in vivo at 100 mg/kg stood at 142%.

For the compound `OC(COCc1ccncc1)c1ccccc1` (centres unmarked) [compound 123], the response vs control in vivo at 100 mg/kg was 140%.

On to `Cc1cccc(C(O)COCc2cccnc2)c1` (centres unmarked) [compound 125], for which the response vs control in vivo at 100 mg/kg was 172%.

As to `O[C@H](COCc1cccnc1)c1ccccc1` [compound 129], the response vs control in vivo at 100 mg/kg came to 158%.

In the case of `COc1ccc(C(O)COCc2cccnc2)cc1` (centres unmarked) [compound 131], the response vs control in vivo at 100 mg/kg amounted to 167%.

Take `O[C@@H](COCC1CNCCS1)c1ccccc1` (some centres unmarked) [compound 134]: the response vs control in vivo at 100 mg/kg is 201%.

As for `OC(COCc1c[nH]cn1)c1ccc(OCc2ccccc2)cc1` (centres unmarked) [compound 137], the response vs control in vivo at 100 mg/kg amounted to 163%.

For the compound `OC(COCc1cccnc1)c1cccc(Oc2ccccc2)c1` (centres unmarked) [compound 139], the response vs control in vivo at 100 mg/kg was 162%.

As to `CC(=O)OC(COCCN(C)C)c1cccc(C)c1` (centres unmarked) [compound 180], the response vs control in vivo at 100 mg/kg came out at 176%.

On to `CC(=O)OC(COCCN(C)C)c1ccc(-c2ccccc2)cc1` (centres unmarked) [compound 187], for which the response vs control in vivo at 100 mg/kg was found to be 153%.

Take `CC(=O)OC(COCc1cccnc1)c1ccccc1` (centres unmarked) [compound 188]: the response vs control in vivo at 100 mg/kg turned out to be 144%.

With `CN1CCN(CCOCC(O)c2ccc(OCc3ccccc3)cc2)CC1` (centres unmarked) [compound 195], the response vs control in vivo at 100 mg/kg was 176%.

Consider `CN(CCOCC(O)c1ccc(OCc2ccccc2)cc1)C1CC1` (centres unmarked) [compound 203], for which the response vs control in vivo at 100 mg/kg worked out at 177%.

As for `OC(COCCNC1CC1)c1ccc(OCc2ccccc2)cc1` (centres unmarked) [compound 204], the response vs control in vivo at 100 mg/kg came out at 176%.

Turning to `Cc1cccc(C(O)COCCNC2CC2)c1` (centres unmarked) [compound 208], the response vs control in vivo at 100 mg/kg turned out to be 242%.

Consider `CC(C)(C)NCCOCC(O)c1ccccc1` (centres unmarked) [compound 211], for which the response vs control in vivo at 100 mg/kg worked out at 177%.

`O[C@H](COC[C@@H]1CNCCO1)c1ccccc1` [compound 218, (1S,2'S)-1-phenyl-2-[(morpholin-2-yl)methoxy]ethanol oxalate]: the response vs control in vivo at 100 mg/kg turned out to be 157%.

Regarding `CC(CN(C)C)OCC(O)c1cccc2ccccc12` (centres unmarked) [compound 250], the response vs control in vivo at 100 mg/kg was 145%.

As to `CN(C)CCOCC(O)c1ccc2c(c1)CCC2` (centres unmarked) [compound 252], the response vs control in vivo at 100 mg/kg was 190%.

As for `CN1CCC=C(COCC(O)c2cccc3ccccc23)C1` (centres unmarked) [compound 271], the response vs control in vivo at 100 mg/kg worked out at 150%.

For `OC(COCc1cccnc1)c1ccc2ccccc2c1` (centres unmarked) [compound 272], the response vs control in vivo at 100 mg/kg turned out to be 185%.

With `CN(C)CCOCC(O)c1cccc2ccsc12` (centres unmarked) [compound 320], the response vs control in vivo at 100 mg/kg is 212%.

On to `OC(COCCN1CCCCC1)c1ccc2sccc2c1` (centres unmarked) [compound 330], for which the response vs control in vivo at 100 mg/kg is 242%.

Regarding `CN(C)CCOCC(O)c1ccc2c(c1)CCS2` (centres unmarked) [compound 332], the response vs control in vivo at 100 mg/kg turned out to be 230%.

On to `CC(COCC(O)c1ccc2sccc2c1)N(C)C` (centres unmarked) [compound 338], for which the response vs control in vivo at 100 mg/kg was 144%.

As for `OC(COCc1cccnc1)c1ccc2occc2c1` (centres unmarked) [compound 339, 1-(benzo[b]furan-5-yl)-2-(pyridin-3-yl-methxoy)ethanol], the response vs control in vivo at 100 mg/kg was found to be 131%.

On to `OC(COCc1cccnc1)c1ccc2sccc2c1` (centres unmarked) [compound 340], for which the response vs control in vivo at 100 mg/kg is 163%.

Consider `OC(COCC1CNCCO1)c1ccc2sccc2c1` (centres unmarked) [compound 343], for which the response vs control in vivo at 100 mg/kg turned out to be 160%.

In the case of `CN1CCCC(COCC(O)c2ccc3sccc3c2)C1` (centres unmarked) [compound 344], the response vs control in vivo at 100 mg/kg amounted to 268%.

In the case of `CN1CCC=C(COCC(O)c2ccc3sccc3c2)C1` (centres unmarked) [compound 345], the response vs control in vivo at 100 mg/kg was 185%.

On to `OC(COCCNC1CC1)c1ccc2sccc2c1` (centres unmarked) [compound 348], for which the response vs control in vivo at 100 mg/kg stood at 251%.

`CN1CCN(CCOCC(O)c2ccc3sccc3c2)CC1` (centres unmarked) [compound 349]: the response vs control in vivo at 100 mg/kg came to 209%.

In the case of `OC(COCCNC12CC3CC(CC(C3)C1)C2)c1ccc2sccc2c1` (centres unmarked) [compound 353], the response vs control in vivo at 100 mg/kg came out at 132%.

Turning to `NCCOCC(O)c1ccc2sccc2c1` (centres unmarked) [compound 357, 1-(benzo[b]thiophen-5-yl)-2-(2-aminoethoxy)ethanol 1/2 fumarate], the response vs control in vivo at 100 mg/kg was 189%.

Regarding `OC(COCc1c[nH]cn1)c1ccc2sccc2c1` (centres unmarked) [compound 358, 1-(benzo[b]thiophen-5-yl)-2-[(imidazolyl)methoxy]ethanol], the response vs control in vivo at 100 mg/kg worked out at 211%.

Take `CN(C)CCOCC(O)c1ccc2[nH]ccc2c1` (centres unmarked) [compound 365]: the response vs control in vivo at 100 mg/kg came to 155%.

Consider `OC(COCCCNC1CC1)c1ccc2sccc2c1` (centres unmarked) [compound 383], for which the response vs control in vivo at 100 mg/kg is 293%.

On to `OC(COCCCN1CCCCC1)c1ccc2sccc2c1` (centres unmarked) [compound 387], for which the response vs control in vivo at 100 mg/kg came out at 228%.

Take `OC(COCCN1CCN(Cc2ccccc2)CC1)c1ccc2occc2c1` (centres unmarked) [compound 394, dihydrochloride]: the response vs control in vivo at 100 mg/kg was 241%.

The same assay, now with this note: po, 0.5 h, read-out: Antihypoxic activity (%).
For the compound `CN1CCN(CCOCC(O)c2cccc3ccccc23)CC1` (centres unmarked) [compound 259, 2-[2-(4-methylpiperazin-1-yl)ethoxy]-1-(1-naphthyl)ethanol dihydrochloride], the response vs control in vivo at 100 mg/kg stood at 155%.

As for `CN(C)CCOCC(O)c1cccc2cccc([N+](=O)[O-])c12` (centres unmarked) [compound 289, 2-[2-(N,N-dimethylamino)ethoxy]-1-(8-nitro-1-naphthyl)ethanol oxalate], the response vs control in vivo at 100 mg/kg came out at 157%.

Take `CNCCOCC(O)c1ccc2sccc2c1` (centres unmarked) [compound 347, 1-(benzo[b]thiophen-5-yl)-2-(N-methylaminoethoxy)ethanol hydrochloride]: the response vs control in vivo at 100 mg/kg is 162%.

Take `CCN(CC)CCOCC(O)c1ccc2sccc2c1` (centres unmarked) [compound 388, 2-[2-(N,N-diethylamino)ethoxy]-1-(benzo[b]thiophen-5-yl)ethanol hydrochloride]: the response vs control in vivo at 100 mg/kg stood at 213%.

The same assay, now with this note: po, 1 h, read-out: Antihypoxic activity (%).
For the compound `CNCCOCC(O)c1cccc2ccccc12` (centres unmarked) [compound 261, 2-[2-(N-methylamino)ethoxy]-1-(1-naphthyl)ethanol hydrochloride], the response vs control in vivo at 100 mg/kg was determined as 126%.
